Experimental data taken from patent US20230183640A1, “METABOLIC INHIBITORS WITH EFFICACY FOR INHIBITING SULFIDE PRODUCTION IN HARSH ENVIRONMENTS” (MC (US) 3 LLC, priority 2020, published 2023).

Key:
[1] = test system: sulfate reducing bacteria; experiment: Efficacy in inhibiting H2S production from sulfate reducing bacteria; assay type: cell-based; conditions: for efficacy for inhibiting hydrogen sulfide production: anaerobic conditions; for activity in reducing H2S production: Tables 6 and 7
Description: To understand the hydrogen sulfide inhibition efficacy of the N-hydroxycarboxamide compounds of the present invention, several compounds were tested. Some compounds that can be used in this H2S inhibiting composition are disclosed in Table 2. For the testing procedures, the compounds were dissolved in DMSO, resulting in a stock solution of about 8000-100000 ppm, which was subsequently diluted in 96-well plates or 10 mL serum vials containing media and selected culture to give varying concentrations from 0.09 to 1000 ppm of the compounds in final solution for efficacy testing.
Strains of commonly found bacteria were used for testing the efficacy of the compounds, viz. Desulfovibrio alaskensis, Desulfovibrio longus and Desulfovibrio gabonensis. Media for the cultures was also prepared by using a standard method. The cultures were aseptically used and incubated under anaerobic conditions. Two well established methods were used for testing various compounds:
The compounds C1, C12, C14, C15 and C16 were tested individually to understand each of their efficacies in inhibiting the H2S production from sulfate reducing bacteria, under standard temperature and pressure conditions. The efficacy of compounds C14 and C15 against hydrogen sulfide production are disclosed in Example 1, Tables 6 and 7.

[2] = test system: Desulfovibrio alaskensis 14563; experiment: H2S and Log (Growth) efficacy against SRB, 96-Well Plate Method; assay type: cell-based
Description: A lyophilized Desulfovibrio alaskensis 14563, Desulfovibrio longus 51456, and Desulfovibrio gabonensis 700201 pure cultures received from ATCC were resuspended individually in 500 ul of MB 1250. Aseptically, the content was transferred to a 5-mL tube of MB1250 medium. The cultures were incubated in an anaerobic chamber at 30° C. for 72 hrs. Subsequently, an individual stock culture with a final concentration of 25% glycerol were prepared by adding equal volumes of culture and 50% glycerol. 1 ml of the cultures were then transferred to 2-ml cryogenic vials and stored at −80° C. The purity of the stock cultures was evaluated through PCR, by amplifying the 16S rDNA region, and thus, it was verified that the original ATCC sample was a pure culture. 48-hour cultures of ATCC Desulfovibrio alaskensis 14563, Desulfovibrio longus 51456, and Desulfovibrio gabonensis 700201 were prepared in an anaerobic chamber. Each culture was prepared as a 1:10 culture by taking 1 milliliter (mL) of a pure culture and inoculating 9 milliliters (mL) of fresh MB1250 media. The Desulfovibrio alaskensis 14563 and Desulfovibrio gabonensis 700201 were all grown at 30° C. and the Desulfovibrio longus 51456 culture was grown at 35° C.
After the 48-hour incubation, 600 microliters (μL) were taken from each culture and optical density (OD) was measured using a Thermofisher Spectronic 200 Spectrophotometer at 600 nm. Each culture was diluted to 0.05 OD600 in fresh MB1250 media and added to the 96 well plates. Edge wells were not used due to their inherent variability and evaporation of the media. Each of the components were added at their respective concentrations for a final volume of 500 μL per well. In Table 3, 6 and 7, the concentrations of the compound used for the experiments are listed. Each experiment was done with at least three replicates for different treatments and non-treatment controls. […] Plates were then sealed with a titer-top and placed into anaerobic boxes and incubated in an anaerobic incubator at 30° C.
At each time point, sulfide samples were taken, and enumeration plates were made. Enumeration plates were made to determine the log growth in each dosed sample. For this process, enumeration plates were prepared by adding 180 μL fresh media MB1250 containing 0.01 wt % ferrous ammonium sulfate. 20 μL was taken from each well of the challenge plates and transferred to the enumeration plates using a 20-200 μL multichannel pipette. Enumeration plates were mixed three times using the multichannel pipette and serial diluted down the plate tenfold (20 μL into 180 μL). This serial dilution process was repeated for all challenge plate rows giving a total of 6 enumeration plates.
After 7 days these enumeration plates were read. The ferrous ammonium sulfate in each plate would be converted to iron sulfide, changing wells with SRB growth from clear to black. By counting the number of black wells in a row, the log growth from the original well in the challenge plate can be determined.
To determine hydrogen sulfide production in each sample, sulfide samples were also taken from each challenge plate. From each well, 9 μL were taken and added to 60 μL of 2% zinc acetate with 0.02% acetic acid. Then, 180 μL of milliQ water was added. 60 μL of stock solution 1 containing 64% sulfuric acid, <1% Dimethyl-4-phenylenediamine (DMPD), water to 100% was added to each well on the plates. This was followed by 3 μL of stock solution 3 containing 50% Iron (III) chloride. All chemicals are ordered from Fisher Scientific and used as received. These were mixed three times and read after 15 minutes. The plates were read at 670 nm using a Biotek microplate reader. Absorbance readings were converted to mM using a standard curve and this was converted to parts per million using the molar mass of sulfur. The standard curves were made using sodium sulfide nonahydrate solutions to give final solutions of 0, 0.125, 0.25 0.5, 1.0, and 1.5 ppm.

## O=C(CCCN1C(=O)c2cccc3cccc(c23)C1=O)NO [C12]
[1]
  efficacy for inhibiting hydrogen sulfide production: high efficacy
[2]; Table 6 run, 2 days, 7.615 PPM
  H2S: 77.6 PPM
  Log (Growth): 7
[2]; Table 6 run, 2 days, 15.75 PPM
  H2S: 115.3 PPM
  Log (Growth): 7.5
[2]; Table 6 run, 2 days, 31.25 PPM
  H2S: 90.1 PPM
  Log (Growth): 7.0
[2]; Table 6 run, 2 days, 125 PPM
  H2S: 91.4 PPM
  Log (Growth): 7.0
[2]; Table 6 run, 2 days, 500 PPM
  H2S: 8.7 PPM
  Log (Growth): 0.0
[2]; Table 6 run, 2 days, 1000 PPM
  H2S: 5.4 PPM
  Log (Growth): 0.0
[2]; Table 6 run, 5 days, 7.615 PPM
  H2S: 17.5 PPM
  Log (Growth): 8.0
[2]; Table 6 run, 5 days, 15.75 PPM
  H2S: 26.7 PPM
  Log (Growth): 8.0
[2]; Table 6 run, 5 days, 31.25 PPM
  H2S: 42.5 PPM
  Log (Growth): 7.0
[2]; Table 6 run, 5 days, 125 PPM
  H2S: 21.3 PPM
  Log (Growth): 3.0
[2]; Table 6 run, 5 days, 500 PPM
  H2S: 6.1 PPM
  Log (Growth): 0.0
[2]; Table 6 run, 5 days, 1000 PPM
  H2S: 4.8 PPM
  Log (Growth): 0.0
[2]; Table 7 run, 2 days, 7.615 PPM
  H2S: 67.5 PPM
  Log (Growth): 8.0
[2]; Table 7 run, 2 days, 15.75 PPM
  H2S: 43.7 PPM
  Log (Growth): 7.3
[2]; Table 7 run, 2 days, 31.25 PPM
  H2S: 18.2 PPM
  Log (Growth): 7.5
[2]; Table 7 run, 2 days, 125 PPM
  H2S: 12.2 PPM
  Log (Growth): 5.0
[2]; Table 7 run, 2 days, 500 PPM
  H2S: 2.2 PPM
  Log (Growth): 3.0
[2]; Table 7 run, 2 days, 1000 PPM
  H2S: 1.8 PPM
  Log (Growth): 2.5
[2]; Table 7 run, 5 days, 7.615 PPM
  H2S: 30.6 PPM
  Log (Growth): 7.3
[2]; Table 7 run, 5 days, 15.75 PPM
  H2S: 34.4 PPM
  Log (Growth): 6.7
[2]; Table 7 run, 5 days, 31.25 PPM
  H2S: 15.1 PPM
  Log (Growth): 5.5
[2]; Table 7 run, 5 days, 125 PPM
  H2S: 6.2 PPM
  Log (Growth): 5.0
[2]; Table 7 run, 5 days, 500 PPM
  H2S: 1.9 PPM
  Log (Growth): 0.0
[2]; Table 7 run, 5 days, 1000 PPM
  H2S: 2.0 PPM
  Log (Growth): 0.0

## O=C(CCCCCCC(=O)NO)NO [C14]
[1]
  activity in reducing H2S production: did not show significant activity
[2]; Table 6 run, 2 days, 7.615 PPM
  H2S: 71.3 PPM
  Log (Growth): 7.0
[2]; Table 6 run, 2 days, 15.75 PPM
  H2S: 56.4 PPM
  Log (Growth): 8.0
[2]; Table 6 run, 2 days, 31.25 PPM
  H2S: 56.3 PPM
  Log (Growth): 7.3
[2]; Table 6 run, 2 days, 125 PPM
  H2S: 131.9 PPM
  Log (Growth): 8.0
[2]; Table 6 run, 2 days, 500 PPM
  H2S: 54.6 PPM
  Log (Growth): 7.7
[2]; Table 6 run, 2 days, 1000 PPM
  H2S: 117.5 PPM
  Log (Growth): 7.7
[2]; Table 6 run, 5 days, 7.615 PPM
  H2S: 45.6 PPM
  Log (Growth): 7.3
[2]; Table 6 run, 5 days, 15.75 PPM
  H2S: 34.7 PPM
  Log (Growth): 7.3
[2]; Table 6 run, 5 days, 31.25 PPM
  H2S: 29.0 PPM
  Log (Growth): 7.3
[2]; Table 6 run, 5 days, 125 PPM
  H2S: 45.0 PPM
  Log (Growth): 7.3
[2]; Table 6 run, 5 days, 500 PPM
  H2S: 42.2 PPM
  Log (Growth): 7.0
[2]; Table 6 run, 5 days, 1000 PPM
  H2S: 38.6 PPM
  Log (Growth): 8.0

## O=C(NO)c1ccccc1 [C15]
[1]
  activity in reducing H2S production: did not show significant activity
[2]; Table 6 run, 2 days, 7.615 PPM
  H2S: 103.6 PPM
  Log (Growth): 7.7
[2]; Table 6 run, 2 days, 15.75 PPM
  H2S: 54.7 PPM
  Log (Growth): 7.7
[2]; Table 6 run, 2 days, 31.25 PPM
  H2S: 54.4 PPM
  Log (Growth): 7.0
[2]; Table 6 run, 2 days, 125 PPM
  H2S: 130.2 PPM
  Log (Growth): 7.3
[2]; Table 6 run, 2 days, 500 PPM
  H2S: 155.7 PPM
  Log (Growth): 7.3
[2]; Table 6 run, 2 days, 1000 PPM
  H2S: 130.7 PPM
  Log (Growth): 8.0
[2]; Table 6 run, 5 days, 7.615 PPM
  H2S: 35.2 PPM
  Log (Growth): 8.0
[2]; Table 6 run, 5 days, 15.75 PPM
  H2S: 42.7 PPM
  Log (Growth): 7.3
[2]; Table 6 run, 5 days, 31.25 PPM
  H2S: 26.3 PPM
  Log (Growth): 7.7
[2]; Table 6 run, 5 days, 125 PPM
  H2S: 55.5 PPM
  Log (Growth): 7.0
[2]; Table 6 run, 5 days, 500 PPM
  H2S: 31.8 PPM
  Log (Growth): 7.0
[2]; Table 6 run, 5 days, 1000 PPM
  H2S: 73.3 PPM
  Log (Growth): 8.0

## CCCCCCCC(=O)NO [C16]
[1]
  efficacy for inhibiting hydrogen sulfide production: high efficacy
[2]; Table 7 run, 2 days, 7.615 PPM
  H2S: 83.5 PPM
  Log (Growth): 7.7
[2]; Table 7 run, 2 days, 15.75 PPM
  H2S: 76.9 PPM
  Log (Growth): 7.7
[2]; Table 7 run, 2 days, 31.25 PPM
  H2S: 35.1 PPM
  Log (Growth): 7.3
[2]; Table 7 run, 2 days, 125 PPM
  H2S: 13.3 PPM
  Log (Growth): 6.3
[2]; Table 7 run, 2 days, 500 PPM
  H2S: 2.7 PPM
  Log (Growth): 5.3
[2]; Table 7 run, 2 days, 1000 PPM
  H2S: 2.2 PPM
  Log (Growth): 3.0
[2]; Table 7 run, 5 days, 7.615 PPM
  H2S: 27.7 PPM
  Log (Growth): 7.3
[2]; Table 7 run, 5 days, 15.75 PPM
  H2S: 29.2 PPM
  Log (Growth): 7.0
[2]; Table 7 run, 5 days, 31.25 PPM
  H2S: 22.1 PPM
  Log (Growth): 7.3
[2]; Table 7 run, 5 days, 125 PPM
  H2S: 6.9 PPM
  Log (Growth): 5.0
[2]; Table 7 run, 5 days, 500 PPM
  H2S: 2.1 PPM
  Log (Growth): 4.3
[2]; Table 7 run, 5 days, 1000 PPM
  H2S: 2.0 PPM
  Log (Growth): 0.0
